Common to all, as to type: biochemical
Experiment [1] deals with T1, human MMP13 (Homo sapiens (Human), UniProt P45452). Nature of the experiment: hMMP13 390 MMP FRET Substrate I cleavage assay, Protocol 1. To be noted: Protocol 1, 390 MMP FRET Substrate I; read-out: hMMP-13 potency IC50. Here is the method: (§1) The basis for the assay is the cleavage of the substrate 390 MMP FRET Substrate I (Anaspec Cat# AS-27076) by human MMP13 (Chemicon, Cat#CC068).
(§2) Human MMP13 is preactivated by incubated the enzyme in the same buffer complemented with 1 mM freshly prepared p-Aminophenylmercuric acetate (AMPA) for 1 h at 37° C.
(§3) The reaction is initiated by adding to the assay plate 390 MMP FRET Substrate I (10 μL, 2.5 μM) in the same buffer.
(§4) Finally, the fluorescence is read on the Envision (Perkin Elmer) after an incubation of 45 min at room temperature (Excitation 485 nm, Emission 530).

The target in experiment [2] is human ADAMTS-5 (Homo sapiens (Human), UniProt Q9UNA0). Nature of the experiment: hADAMTS-5 TBIS-1 cleavage assay, Protocol 3. To be noted: Protocol 3, TBIS-1 substrate, 90 min at 37° C.; read-out: hADAMTS-5 potency IC50. Here is the method:
(§5) The reaction is initiated by adding to the assay plate TBIS-1 (10 μL, 4.5 μM, Anaspec) in the same buffer.
Finally, the fluorescence is read on the Envision (Perkin Elmer) after an incubation of 90 min at 37° C. (Excitation 485 nm, emission 530).

The target of experiment [3] is rnADAMTS-5 (1-564-6H) (Rattus norvegicus (Rat), UniProt Q6TY19). Nature of the experiment: Rat ADAMTS-5 TBIS-1 substrate cleavage assay. To be noted: rnADAMTS-5, TBIS-1 substrate, 120 min at 37° C.; read-out: Rat ADAMTS-5 potency IC50. Here is the method:
The basis for the assay is the cleavage of the substrate TBIS-1 (5 FAM-[…] (5TAMRA)K-NH2) (SEQ ID NO: 2) by rnADAMTS-5 (1-564-6H).
as §5
Finally, the fluorescence is read on the Envision (Perkin Elmer) after an incubation of 120 min at 37° C. (Excitation 485 nm, emission 535).

Experiment [4] deals with human ADAMTS6 (Homo sapiens (Human), UniProt Q9UKP5). Kind of experiment: hADAMTS-6 520 MMP FRET substrate XII cleavage assay. As to conditions: 37° C. for 2 h, read-out: hADAMTS-6 potency IC50. The method in brief:
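FRET cleavage of 520 MMP Substrate XII (Arg-Pro-Lys-Pro-Tyr-Ala-Nva-Trp-Met-Lys) by 0.73 nM enzyme in 25 mM Tris pH8.0, 0.05% CHAPS, 2.5 mM CaCl2. Compound dilution series from 20 μM top, 1/5 steps; substrate added from 1 μM stock, 2 h at 37° C. Fluorescence read at exc485/em530 for IC50.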

The target in experiment [5] is human TACE (Homo sapiens (Human), UniProt P78536). Nature of the experiment: hTACE 5FAM-[…]-5TAMRA cleavage assay. To be noted: 75 min at room temperature, read-out: hTACE potency IC50. How it is done: Finally, the fluorescence is read on the Envision (Perkin Elmer) after an incubation of 75 min at room temperature (Excitation 485 nm, Emission 530).
Chain of human TACE (P78536 215-671): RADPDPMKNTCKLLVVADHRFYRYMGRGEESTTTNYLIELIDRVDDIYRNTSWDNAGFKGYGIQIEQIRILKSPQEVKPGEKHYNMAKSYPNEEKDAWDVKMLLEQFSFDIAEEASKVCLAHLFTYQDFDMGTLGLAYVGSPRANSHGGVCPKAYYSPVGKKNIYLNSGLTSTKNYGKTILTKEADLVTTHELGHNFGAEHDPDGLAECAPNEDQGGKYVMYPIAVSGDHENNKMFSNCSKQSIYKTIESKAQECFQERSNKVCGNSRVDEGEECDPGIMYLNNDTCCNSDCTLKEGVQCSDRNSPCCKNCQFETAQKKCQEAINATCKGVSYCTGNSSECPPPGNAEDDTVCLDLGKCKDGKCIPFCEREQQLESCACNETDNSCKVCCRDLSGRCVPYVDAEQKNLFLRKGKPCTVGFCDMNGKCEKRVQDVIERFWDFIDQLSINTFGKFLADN
In experiment [6] the target is human MMP14 (Homo sapiens (Human), UniProt P50281). Nature of the experiment: hMMP14 390 MMP FRET Substrate I cleavage assay. As to conditions: 60 min at room temperature, read-out: hMMP-14 potency IC50. Here is the method: The basis for the assay is the cleavage of the substrate 390 MMP FRET Substrate I (Anaspec Cat# AS-27076) by human MMP14 (Biomol, Cat#SE-259).
as §3
Finally, the fluorescence is read on the Envision (Perkin Elmer) after an incubation of 60 min at room temperature (Excitation 485 nm, Emission 530).

Experiment [7] has as its target T1, human MMP13. Kind of experiment: hMMP13 390 MMP FRET Substrate I cleavage assay, Protocol 2. As to conditions: Protocol 2, 390 MMP FRET Substrate I; read-out: hMMP-13 potency IC50. How it is done:
as §1, §2, §3, §4

Like-named read-outs stand apart in the source and are kept apart here.

Chain of rnADAMTS-5 (1-564-6H) (Q6TY19 entry or part of it): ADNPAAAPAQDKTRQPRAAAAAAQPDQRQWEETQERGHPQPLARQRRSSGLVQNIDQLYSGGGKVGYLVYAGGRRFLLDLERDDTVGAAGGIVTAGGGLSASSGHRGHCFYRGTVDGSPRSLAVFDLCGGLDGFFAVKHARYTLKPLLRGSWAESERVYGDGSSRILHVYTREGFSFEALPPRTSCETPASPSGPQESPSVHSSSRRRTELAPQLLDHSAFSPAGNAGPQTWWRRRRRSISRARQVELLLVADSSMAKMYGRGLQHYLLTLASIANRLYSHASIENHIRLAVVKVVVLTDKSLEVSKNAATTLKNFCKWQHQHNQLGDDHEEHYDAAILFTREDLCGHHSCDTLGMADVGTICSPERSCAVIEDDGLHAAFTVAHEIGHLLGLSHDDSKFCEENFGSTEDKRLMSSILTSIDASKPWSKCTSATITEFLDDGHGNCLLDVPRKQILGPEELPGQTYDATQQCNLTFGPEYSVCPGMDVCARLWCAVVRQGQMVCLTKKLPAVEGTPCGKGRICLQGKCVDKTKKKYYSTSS
Chain of human ADAMTS-5 (Q9UNA0 262-930): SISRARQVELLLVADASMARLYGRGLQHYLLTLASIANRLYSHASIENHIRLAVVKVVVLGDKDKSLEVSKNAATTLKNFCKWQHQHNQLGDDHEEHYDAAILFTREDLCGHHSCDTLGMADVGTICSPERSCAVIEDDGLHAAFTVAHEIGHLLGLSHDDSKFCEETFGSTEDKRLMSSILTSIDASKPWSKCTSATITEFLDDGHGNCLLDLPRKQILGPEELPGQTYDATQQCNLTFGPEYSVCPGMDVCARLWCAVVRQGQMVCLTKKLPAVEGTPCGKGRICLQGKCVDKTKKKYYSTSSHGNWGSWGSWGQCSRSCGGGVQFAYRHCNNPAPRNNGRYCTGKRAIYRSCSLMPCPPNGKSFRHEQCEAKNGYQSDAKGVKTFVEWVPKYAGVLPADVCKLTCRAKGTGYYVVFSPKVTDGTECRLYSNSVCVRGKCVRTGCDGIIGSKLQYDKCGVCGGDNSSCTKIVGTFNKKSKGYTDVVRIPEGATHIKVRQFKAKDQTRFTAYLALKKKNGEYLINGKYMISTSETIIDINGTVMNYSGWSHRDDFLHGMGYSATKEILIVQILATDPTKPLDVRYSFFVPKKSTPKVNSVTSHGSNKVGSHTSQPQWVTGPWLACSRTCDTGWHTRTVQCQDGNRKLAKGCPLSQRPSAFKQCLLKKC
Chain of human ADAMTS6 (Q9UKP5 other isoform, or with tags, fused parts or gaps): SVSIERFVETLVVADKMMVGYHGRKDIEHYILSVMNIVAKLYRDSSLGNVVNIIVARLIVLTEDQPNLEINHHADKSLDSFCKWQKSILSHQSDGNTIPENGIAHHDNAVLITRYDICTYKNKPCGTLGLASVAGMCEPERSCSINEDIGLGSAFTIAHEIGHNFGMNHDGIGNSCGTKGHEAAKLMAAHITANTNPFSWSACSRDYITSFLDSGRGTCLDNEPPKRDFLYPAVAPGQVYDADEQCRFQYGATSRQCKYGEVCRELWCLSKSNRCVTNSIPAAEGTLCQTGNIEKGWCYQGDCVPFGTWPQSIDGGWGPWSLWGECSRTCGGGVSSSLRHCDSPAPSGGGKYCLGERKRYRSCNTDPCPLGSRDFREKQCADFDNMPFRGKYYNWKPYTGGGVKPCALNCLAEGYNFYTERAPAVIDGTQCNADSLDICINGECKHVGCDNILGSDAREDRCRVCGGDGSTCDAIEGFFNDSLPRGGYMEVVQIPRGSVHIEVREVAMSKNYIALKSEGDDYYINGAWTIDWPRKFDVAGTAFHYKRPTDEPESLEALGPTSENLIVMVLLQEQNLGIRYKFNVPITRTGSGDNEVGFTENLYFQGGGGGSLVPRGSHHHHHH

On to `C[C@@H](C[C@@]1(C)NC(=O)NC1=O)C(=O)N1CCC(c2cccc(F)c2)CC1` (stereo in doubt) [Cpd 28, 5-(3-(4-(3-fluorophenyl)piperidin-1-yl)-2-methyl-3-oxopropyl)-5-methyl-imidazolidine-2,4-dione], for which the IC50 (commonly the concentration that inhibits the measured activity by half) is more than 100 nM in experiment [1]; 25 to 50 nM in experiment [2]; 0.001 to 25 nM in experiment [3]; 50 to 100 nM in experiment [4]; more than 100 nM in experiment [5] (5FAM-LAQAVRSSSRK-5TAMRA).

On to `O=C1NC(=O)C(CCC(=O)N2CCC(c3cc(Cl)cc(Cl)c3)CC2)(C2CC2)N1` (centres unmarked) [Cpd 17, 5-cyclopropyl-5-(3-(4-(3,5-dichlorophenyl)piperidin-1-yl)-3-oxopropyl) imidazolidine-2,4-dione], for which the IC50 in experiment [1] was more than 100 nM; in experiment [2], 50 to 100 nM; in experiment [3] it was 50 to 100 nM; in experiment [4] it was 50 to 100 nM; in experiment [5] (5FAM-LAQAVRSSSRK-5TAMRA), more than 100 nM.

As for `COc1cc(C2CCN(C(=O)CC[C@H]3NC(=O)NC3=O)CC2)cc(OC)c1Cl` [Cpd 21, (R)-5-(3-(4-(4-chloro-3,5-dimethoxy-phenyl)piperidin-1-yl)-3-oxopropyl) imidazolidine-2,4-dione], the IC50 is more than 100 nM in experiment [1]; more than 100 nM in experiment [2]; more than 100 nM in experiment [3]; 0.001 to 25 nM in experiment [4]; more than 100 nM in experiment [5] (5FAM-LAQAVRSSSRK-5TAMRA).

In the case of `C[C@@H](C[C@@]1(C)NC(=O)NC1=O)C(=O)N1CCC(c2ccc(F)cc2)CC1` (stereo in doubt) [Cpd 26, 5-(3-(4-(4-fluorophenyl)piperidin-1-yl)-2-methyl-3-oxopropyl)-5-methyl-imidazolidine-2,4-dione], the IC50 in experiment [1] was more than 100 nM; in experiment [2] it was 50 to 100 nM; in experiment [3], 50 to 100 nM; in experiment [4], 25 to 50 nM; in experiment [5] (5FAM-LAQAVRSSSRK-5TAMRA) it was more than 100 nM.

For the compound `O=C1NC(=O)C(CCC(=O)N2CCC(c3cccc(Cl)c3)CC2)(C2CC2)N1` (centres unmarked) [Cpd 18, 5-(3-(4-(3-chlorophenyl)piperidin-1-yl)-3-oxopropyl)-5-cyclopropyl-imidazolidine-2,4-dione], the IC50 in experiment [1] is more than 100 nM; in experiment [2] it was 25 to 50 nM; in experiment [3], 50 to 100 nM; in experiment [4], more than 100 nM; in experiment [5] (5FAM-LAQAVRSSSRK-5TAMRA), more than 100 nM.

Take `COc1cc(C2CCN(C(=O)CCC3(C)NC(=O)NC3=O)CC2)cc(OC)c1Cl` (centres unmarked) [Cpd 22, 5-(3-(4-(4-chloro-3,5-dimethoxy-phenyl)piperidin-1-yl)-3-oxopropyl)-5-methyl-imidazolidine-2,4-dione]: the IC50 is more than 100 nM in experiment [1]; more than 100 nM in experiment [2]; more than 100 nM in experiment [3]; 0.001 to 25 nM in experiment [4]; 50 to 100 nM in experiment [5] (5FAM-[…]-5TAMRA).

Regarding `O=C1NC(=O)C(CCC(=O)N2CCC(c3cccc(F)c3)CC2)(C2CC2)N1` (centres unmarked) [Cpd 19, 5-cyclopropyl-5-(3-(4-(3-fluorophenyl)piperidin-1-yl)-3-oxopropyl) imidazolidine-2,4-dione], the 50% inhibitory concentration (IC50) in experiment [1] was more than 100 nM; in experiment [2], 25 to 50 nM; in experiment [3], 25 to 50 nM; in experiment [4] it was more than 100 nM; in experiment [5] (5FAM-LAQAVRSSSRK-5TAMRA) it was more than 100 nM.

Take `Cc1cccc(C2CCN(C(=O)[C@@H](C)C[C@@]3(C)NC(=O)NC3=O)CC2)c1` (stereo in doubt) [Cpd 27, 5-methyl-5-(2-methyl-3-oxo-3-(4-m-tolylpiperidin-yl)propyl) imidazolidine-2,4-dione]: the IC50 in experiment [1] was more than 100 nM; in experiment [2], 25 to 50 nM; in experiment [3] it was 25 to 50 nM; in experiment [4] it was 25 to 50 nM; in experiment [5] (5FAM-[…]-5TAMRA), 50 to 100 nM.

For `COc1cc(C2CCN(C(=O)CC[C@@]3(C)NC(=O)NC3=O)CC2)cc(N(C)C)c1Cl` [Cpd 90, (5R)-5-[3-[4-[4-chloro-3-(dimethylamino)-5-methoxy-phenyl]-1-piperidyl]-3-oxo-propyl]-5-methyl-imidazolidine-2,4-dione], the half-inhibitory concentration (IC50) in experiment [6] is more than 100 nM; in experiment [2], more than 100 nM; in experiment [4] it was 0.001 to 25 nM; in experiment [7], more than 100 nM; in experiment [5] (5FAM-[…]-5TAMRA) it was 50 to 100 nM.

Regarding `C[C@@H](C[C@@]1(C)NC(=O)NC1=O)C(=O)N1CCC(c2cc(Cl)cc(Cl)c2)CC1` (stereo in doubt) [Cpd 25, 5-(3-(4-(3,5-dichlorophenyl)piperidin-1-yl)-2-methyl-3-oxopropyl)-5-methyl-imidazolidine-2,4-dione], the IC50 in experiment [1] was more than 100 nM; in experiment [2], 25 to 50 nM; in experiment [3], 25 to 50 nM; in experiment [4] it was 0.001 to 25 nM; in experiment [5] (5FAM-[…]-5TAMRA), 50 to 100 nM.

`C[C@@H](C[C@@]1(C)NC(=O)NC1=O)C(=O)N1CCC(c2ccc(Cl)cc2)CC1` (stereo in doubt) [Cpd 24, 5-(3-(4-(4-chlorophenyl)piperidin-1-yl)-2-methyl-3-oxopropyl)-5-methyl imidazolidine-2,4-dione]: the 50% inhibitory concentration (IC50) is more than 100 nM in experiment [1]; 50 to 100 nM in experiment [2]; 50 to 100 nM in experiment [3]; 0.001 to 25 nM in experiment [4]; more than 100 nM in experiment [5] (5FAM-LAQAVRSSSRK-5TAMRA).

As for `COc1cc(C2CCN(C(=O)CC[C@@]3(C)NC(=O)NC3=O)CC2)cc(Cl)c1F` [Cpd 80, (5R)-5-[3-[4-(3-chloro-4-fluoro-5-methoxy-phenyl)-1-piperidyl]-3-oxo-propyl]-5-methyl-imidazolidine-2,4-dione], the half-maximal inhibitory concentration (IC50) was more than 100 nM in experiment [6]; 50 to 100 nM in experiment [2]; 0.001 to 25 nM in experiment [4]; more than 100 nM in experiment [7]; 25 to 50 nM in experiment [5] (5FAM-[…]-5TAMRA).

With `C[C@@H](C[C@@]1(C)NC(=O)NC1=O)C(=O)N1CCC(c2ccccc2)CC1` [Cpd 23, (R)-5-methyl-5-((S)-2-methyl-3-oxo-3-(4-phenylpiperidin-1-yl)propyl) imidazolidine-2,4-dione], the IC50 was more than 100 nM in experiment [1]; 50 to 100 nM in experiment [2]; 50 to 100 nM in experiment [3]; 50 to 100 nM in experiment [4]; more than 100 nM in experiment [5] (5FAM-LAQAVRSSSRK-5TAMRA).

Consider `COc1cc(Cl)c(C)cc1C1CCN(C(=O)CC[C@@]2(C)NC(=O)NC2=O)CC1` [Cpd 89, (5R)-5-[3-[4-(4-chloro-2-methoxy-5-methyl-phenyl)-1-piperidyl]-3-oxo-propyl]-5-methyl-imidazolidine-2,4-dione], for which the IC50 is more than 100 nM in experiment [6]; more than 100 nM in experiment [2]; 0.001 to 25 nM in experiment [4]; more than 100 nM in experiment [7]; 50 to 100 nM in experiment [5] (5FAM-[…]-5TAMRA).

For the compound `C[C@@H](C[C@@]1(C2CC2)NC(=O)NC1=O)C(=O)N1CCC(c2ccccc2)CC1` [Cpd 20], the IC50 in experiment [1] was more than 100 nM; in experiment [2], 50 to 100 nM; in experiment [3], 50 to 100 nM; in experiment [4], more than 100 nM; in experiment [5] (5FAM-LAQAVRSSSRK-5TAMRA), more than 100 nM.

Consider `C[C@@H](C[C@@]1(C)NC(=O)NC1=O)C(=O)N1CCC(c2cccc(Cl)c2)CC1` (stereo in doubt) [Cpd 29, 5-(3-(4-(3-chlorophenyl)piperidin-1-yl)-2-methyl-3-oxopropyl)-5-methyl-imidazolidine-2,4-dione], for which the IC50 is more than 100 nM in experiment [1]; 25 to 50 nM in experiment [2]; 0.001 to 25 nM in experiment [3]; 25 to 50 nM in experiment [4]; 50 to 100 nM in experiment [5] (5FAM-[…]-5TAMRA).

(Values after patent US10550100B2, “5-[3-[piperzin-1-yl]-3-oxo-propyl]-imidazolidine-2,4-dione derivatives as ADAMTS 4 and 5 inhibitors for treating E.G. osteoarthritis” (GALAPAGOS NV, priority 2016, dated 2020).)
